Data from patent US11566007B2, “Ras inhibitors” (Revolution Medicines, Inc., priority 2019, dated 2023).
Read-outs that look alike come from different tables or passages of the source.

What was measured:
[1] = tested on: NCI-H358 cells (K-Ras G12C); experiment: Potency assay: pERK in NCI-H358 cells; format: cell-based, human; settings: Homo sapiens, NCI-H358; H358 KRAS G12C; read-out: pERK EC50
In short: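 Compounds are dosed as ten 3-fold dilutions from a 10 mM DMSO stock, in duplicate, and left on cells for 4 h at 37 °C, 5% CO2. Phospho-ERK1/2 is then quantified by AlphaLISA SureFire Ultra or In-Cell Western, and IC50 is derived from a 4-parameter sigmoid against log concentration.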

[2] = tested on: NCI-H358 (K-Ras G12C); experiment: CellTiter-Glo cell viability assay, NCI-H358; format: cell-based, human; settings: Homo sapiens, NCI-H358, 120 h, NCI-H358, 5-day treatment; class symbols; read-out: Additional H358 Cell Viability assay data (K-Ras G12C, IC50)
In short: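 Luminescent viability readout on day 5 after direct compound addition to plated cells; plates sat ~30 min at room temperature before reading. Values expressed as percent of mean DMSO signal, curves fit with a four-parameter logistic model.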

[3] = biological target: K-Ras G12C (Homo sapiens (Human), UniProt P01116+P62937, G12C); experiment: Ras-Raf (BRAF RBD) disruption / FRET / MOA assay, KRAS G12C; format: biochemical; settings: KRAS G12C, Ras-Raf disruption/FRET/MOA assay
In short: (§1)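 Compound-driven ternary complex of nucleotide-loaded Ras with cyclophilin A, disrupting BRAF RBD binding. 10-point 3-fold dilution from 30 μM final, 3 h at 25° C, then anti-His Eu-W1024 (10 nM) and anti-GST allophycocyanin (50 nM) for 1.5 h. IC50 from TR-FRET ratio decrease versus DMSO.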

[4] = biological target: K-Ras G13C (Homo sapiens (Human), UniProt P01116+P62937, G13C); experiment: Ras-Raf (BRAF RBD) disruption / FRET / MOA assay, KRAS G13C; format: biochemical; settings: KRAS G13C, Ras-Raf disruption/FRET/MOA assay
In short: as §1

[5] = biological target: KRAS G12S (Homo sapiens (Human), UniProt P01116+P62937, G12S); experiment: Ras-Raf (BRAF RBD) disruption / FRET / MOA assay, KRAS G12S; format: biochemical; settings: class symbols
In short: as §1

[6] = biological target: KRAS G12D (Homo sapiens (Human), UniProt P01116+P62937, G12D); experiment: Ras-Raf (BRAF RBD) disruption / FRET / MOA assay, KRAS G12D; format: biochemical; settings: class symbols
In short: as §1

[7] = biological target: KRAS G12V (Homo sapiens (Human), UniProt P01116+P62937, G12V); experiment: Ras-Raf (BRAF RBD) disruption / FRET / MOA assay, KRAS G12V; format: biochemical
In short: as §1

[8] = biological target: KRAS WT (Homo sapiens (Human), UniProt P01116+P62937); experiment: Ras-Raf (BRAF RBD) disruption / FRET / MOA assay, KRAS WT; format: biochemical
In short: as §1

[9] = biological target: KRAS G13D (Homo sapiens (Human), UniProt P01116+P62937, G13D); experiment: Ras-Raf (BRAF RBD) disruption / FRET / MOA assay, KRAS G13D; format: biochemical
In short: as §1

[10] = biological target: NRAS G12C (Homo sapiens (Human), UniProt P01111+P62937, G12C); experiment: Ras-Raf (BRAF RBD) disruption / FRET / MOA assay, NRAS G12C; format: biochemical
In short: as §1

[11] = read-out: IC50* KRAS G12C FRET data
[12] = read-out: IC50* KRAS G13C FRET data
[13] = Ras-Raf disruption/FRET/MOA assay, read-out: KRAS G12S FRET data IC50
[14] = Ras-Raf disruption/FRET/MOA assay, read-out: KRAS G12D FRET data IC50
[15] = read-out: IC50* KRAS G12V FRET data
[16] = read-out: IC50* KRAS WT FRET data
[17] = read-out: IC50* KRAS G13D FRET data
[18] = read-out: IC50* NRAS G12C FRET data

Sequence of KRAS G12S (P01116-2 other isoform, or with tags, fused parts or gaps G12S): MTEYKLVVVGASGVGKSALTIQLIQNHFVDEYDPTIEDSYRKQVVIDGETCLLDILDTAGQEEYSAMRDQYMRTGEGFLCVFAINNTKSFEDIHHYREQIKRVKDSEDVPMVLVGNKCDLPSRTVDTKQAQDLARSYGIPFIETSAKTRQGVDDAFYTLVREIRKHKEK
Sequence of KRAS G12S (P62937 whole entry): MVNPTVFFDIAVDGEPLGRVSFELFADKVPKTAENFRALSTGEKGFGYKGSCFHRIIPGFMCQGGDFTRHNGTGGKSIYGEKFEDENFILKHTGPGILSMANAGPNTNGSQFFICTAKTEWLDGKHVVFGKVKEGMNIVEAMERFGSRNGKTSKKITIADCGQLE
Sequence of K-Ras G12C (P01116-2 other isoform, or with tags, fused parts or gaps G12C): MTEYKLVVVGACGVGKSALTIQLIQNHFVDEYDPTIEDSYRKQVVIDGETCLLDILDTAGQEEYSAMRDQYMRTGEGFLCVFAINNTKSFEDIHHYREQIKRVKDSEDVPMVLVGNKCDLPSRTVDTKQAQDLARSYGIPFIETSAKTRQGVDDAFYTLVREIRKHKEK
Sequence of K-Ras G12C (P62937 whole entry): as the sequence (P62937 whole entry) above
Sequence of KRAS G12V (P01116-2 other isoform, or with tags, fused parts or gaps G12V): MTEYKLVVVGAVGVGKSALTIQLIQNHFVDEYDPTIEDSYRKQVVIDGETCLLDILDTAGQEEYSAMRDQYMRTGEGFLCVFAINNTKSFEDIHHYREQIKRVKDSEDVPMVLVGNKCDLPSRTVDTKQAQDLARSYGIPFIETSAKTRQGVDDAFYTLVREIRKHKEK
Sequence of KRAS G12V (P62937 whole entry): as the sequence (P62937 whole entry) above
Sequence of KRAS WT (P01116-2 other isoform, or with tags, fused parts or gaps): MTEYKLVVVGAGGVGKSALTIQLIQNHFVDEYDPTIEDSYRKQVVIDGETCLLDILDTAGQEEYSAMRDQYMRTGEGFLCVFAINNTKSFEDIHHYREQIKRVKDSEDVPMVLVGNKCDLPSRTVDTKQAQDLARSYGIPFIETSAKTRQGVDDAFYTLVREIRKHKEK
Sequence of KRAS WT (P62937 whole entry): as the sequence (P62937 whole entry) above
Sequence of K-Ras G13C (P01116-2 other isoform, or with tags, fused parts or gaps G13C): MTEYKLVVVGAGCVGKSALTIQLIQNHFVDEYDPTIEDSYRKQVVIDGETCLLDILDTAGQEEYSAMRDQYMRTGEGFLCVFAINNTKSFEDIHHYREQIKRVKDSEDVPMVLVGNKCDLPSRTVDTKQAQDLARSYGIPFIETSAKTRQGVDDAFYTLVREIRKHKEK
Sequence of K-Ras G13C (P62937 whole entry): as the sequence (P62937 whole entry) above
Sequence of NRAS G12C (P01111 whole entry G12C): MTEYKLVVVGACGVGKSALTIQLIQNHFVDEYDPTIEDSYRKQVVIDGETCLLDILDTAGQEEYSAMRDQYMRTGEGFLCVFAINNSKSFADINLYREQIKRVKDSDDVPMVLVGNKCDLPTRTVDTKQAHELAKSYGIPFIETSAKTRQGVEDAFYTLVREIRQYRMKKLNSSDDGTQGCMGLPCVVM
Sequence of NRAS G12C (P62937 whole entry): as the sequence (P62937 whole entry) above
Sequence of KRAS G12D (P01116-2 other isoform, or with tags, fused parts or gaps G12D): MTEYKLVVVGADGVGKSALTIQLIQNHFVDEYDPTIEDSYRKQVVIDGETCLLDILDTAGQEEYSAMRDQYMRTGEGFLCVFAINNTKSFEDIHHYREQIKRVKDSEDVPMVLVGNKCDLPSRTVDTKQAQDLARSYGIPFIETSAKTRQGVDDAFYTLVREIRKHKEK
Sequence of KRAS G12D (P62937 whole entry): as the sequence (P62937 whole entry) above
Sequence of KRAS G13D (P01116-2 other isoform, or with tags, fused parts or gaps G13D): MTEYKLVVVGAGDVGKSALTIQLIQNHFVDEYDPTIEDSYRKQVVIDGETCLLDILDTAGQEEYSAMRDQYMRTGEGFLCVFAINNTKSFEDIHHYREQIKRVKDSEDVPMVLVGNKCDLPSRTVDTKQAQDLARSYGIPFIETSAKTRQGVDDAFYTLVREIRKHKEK
Sequence of KRAS G13D (P62937 whole entry): as the sequence (P62937 whole entry) above

Compound	EC50 [1] [nM]	IC50 [2] [nM]	IC50 ([3]; IC50* KRAS G12C FRET data) [nM]	IC50 ([4]; IC50* KRAS G13C FRET data) [nM]	IC50 ([5]; KRAS G12S FRET data IC50, Ras-Raf disruption/FRET/MOA assay) [nM]	IC50 ([6]; KRAS G12D FRET data IC50, Ras-Raf disruption/FRET/MOA assay) [nM]	IC50 ([7]; IC50* KRAS G12V FRET data) [nM]	IC50 ([8]; IC50* KRAS WT FRET data) [nM]	IC50 ([9]; IC50* KRAS G13D FRET data) [nM]	IC50 ([10]; IC50* NRAS G12C FRET data) [nM]	IC50 [3, 11] [nM]	IC50 [4, 12] [nM]	IC50 [5, 13] [nM]	IC50 [6, 14] [nM]	IC50 [7, 15] [nM]	IC50 [8, 16] [nM]	IC50 [9, 17] [nM]	IC50 [10, 18] [nM]
C=CC(=O)N1CC[C@H](C(=O)N(C)[C@H](C(=O)N[C@H]2Cc3cccc(c3)-c3ccc4c(c3)c(c(-c3cccnc3[C@H](C)OC)n4CC)CC(C)(C)COC(=O)[C@@H]3CCCN(N3)C2=O)C2CC2)C1 (atropisomer, axis not shown) [Example A320]	< 5000	10 to 100	–	–	–	–	–	–	–	–	100 to 1000	1000 to 10000	1000 to 10000	> 10000	1000 to 10000	1000 to 10000	> 10000	100 to 1000
C=CC(=O)N1CC[C@H](C(=O)N(C)[C@H](C(=O)N[C@H]2Cc3cccc(c3)-c3ccc4c(c3)c(c(-c3cccnc3[C@H](C)OC)n4CC)CC(C)(C)COC(=O)[C@@H]3CCCN(N3)C2=O)C2CCC2)C1 (atropisomer, axis not shown) [Example A321]	< 5000	10 to 100	–	–	–	–	–	–	–	–	100 to 1000	1000 to 10000	1000 to 10000	> 10000	1000 to 10000	1000 to 10000	1000 to 10000	100 to 1000
CCn1c(-c2cccnc2[C@H](C)OC)c2c3cc(ccc31)-c1csc(n1)C[C@H](NC(=O)[C@H](C(C)C)N1CCC3(CCN(C(=O)C#CC(C)(C)N(C)C)CC3)C1=O)C(=O)N1CCC[C@H](N1)C(=O)OCC(C)(C)C2 (atropisomer, axis not shown) [Example A322]	< 5000	< 10	–	–	–	–	–	–	–	–	< 10	100 to 1000	> 10000	> 10000	> 10000	> 10000	> 10000	10 to 100
CCn1c(-c2cccnc2[C@H](C)OC)c2c3cc(ccc31)-c1csc(n1)C[C@H](NC(=O)[C@H](C(C)C)N1CCC3(CN(C(=O)C#CC(C)(C)N(C)C)C3)C1=O)C(=O)N1CCC[C@H](N1)C(=O)OCC(C)(C)C2 (atropisomer, axis not shown) [Example A323]	< 5000	< 10	–	–	–	–	–	–	–	–	< 10	100 to 1000	> 10000	> 10000	> 10000	> 10000	> 10000	< 10
CCn1c(-c2cccnc2[C@H](C)OC)c2c3cc(ccc31)-c1cccc(c1)C[C@H](NC(=O)[C@H](C(C)C)N1CCC3(CN(C(=O)C#CC(C)(C)N(C)C)C3)C1=O)C(=O)N1CCC[C@H](N1)C(=O)OCC(C)(C)C2 (atropisomer, axis not shown) [Example A324]	< 5000	< 10	–	–	–	–	–	–	–	–	< 10	100 to 1000	1000 to 10000	> 10000	1000 to 10000	1000 to 10000	> 10000	< 10
CCn1c(-c2cccnc2[C@H](C)OC)c2c3cc(ccc31)-c1cccc(c1)C[C@H](NC(=O)[C@H](C(C)C)N(C)C(=O)[C@H]1CCN(C(=O)C#CC(C)(C)N3CCCC3)C1)C(=O)N1CCC[C@H](N1)C(=O)OCC(C)(C)C2 (atropisomer, axis not shown) [Example A326]	< 5000	< 10	–	–	–	–	–	–	–	–	< 10	1000 to 10000	1000 to 10000	1000 to 10000	1000 to 10000	1000 to 10000	1000 to 10000	< 10
C=CC(=O)N1CC[C@H](C(=O)N(C)[C@H](C(=O)N[C@H]2Cc3cccc(c3F)-c3ccc4c(c3)c(c(-c3cccnc3[C@H](C)OC)n4CC)CC(C)(C)COC(=O)[C@@H]3CCCN(N3)C2=O)C(C)C)C1 (atropisomer, axis not shown) [Example A327]	< 5000	10 to 100	–	–	–	–	–	–	–	–	100 to 1000	1000 to 10000	1000 to 10000	> 10000	> 10000	> 10000	> 10000	100 to 1000

Continued, values first:

EC50 [1] [nM]	IC50 [2] [nM]	IC50 ([3]; IC50* KRAS G12C FRET data) [nM]	IC50 ([4]; IC50* KRAS G13C FRET data) [nM]	IC50 ([5]; KRAS G12S FRET data IC50, Ras-Raf disruption/FRET/MOA assay) [nM]	IC50 ([6]; KRAS G12D FRET data IC50, Ras-Raf disruption/FRET/MOA assay) [nM]	IC50 ([7]; IC50* KRAS G12V FRET data) [nM]	IC50 ([8]; IC50* KRAS WT FRET data) [nM]	IC50 ([9]; IC50* KRAS G13D FRET data) [nM]	IC50 ([10]; IC50* NRAS G12C FRET data) [nM]	IC50 [3, 11] [nM]	IC50 [4, 12] [nM]	IC50 [5, 13] [nM]	IC50 [6, 14] [nM]	IC50 [7, 15] [nM]	IC50 [8, 16] [nM]	IC50 [9, 17] [nM]	IC50 [10, 18] [nM]	Compound
< 5000	10 to 100	10 to 100	10 to 100	100 to 1000	1000 to 10000	10 to 100	100 to 1000	100 to 1000	10 to 100	–	–	–	–	–	–	–	–	CCn1c(-c2cccnc2[C@H](C)OC)c2c3cc(ccc31)-c1cc(O)cc(c1)C[C@H](NC(=O)[C@H](C(C)C)N(C)C(=O)[C@H]1CCN(S(=O)(=O)C=C(C)C)C1)C(=O)N1CCC[C@H](N1)C(=O)OCC(C)(C)C2 (atropisomer, axis not shown) [Example A305]
< 5000	10 to 100	–	–	–	–	–	–	–	–	100 to 1000	10 to 100	100 to 1000	1000 to 10000	100 to 1000	100 to 1000	100 to 1000	100 to 1000	C/C=C(\C)S(=O)(=O)N1CC[C@H](C(=O)N(C)[C@H](C(=O)N[C@H]2Cc3cc(O)cc(c3)-c3ccc4c(c3)c(c(-c3cccnc3[C@H](C)OC)n4CC)CC(C)(C)COC(=O)[C@@H]3CCCN(N3)C2=O)C(C)C)C1 (atropisomer, axis not shown) [Example A306]
< 5000	> 1000	–	–	–	–	–	–	–	–	1000 to 10000	1000 to 10000	> 10000	> 10000	1000 to 10000	> 10000	> 10000	1000 to 10000	CCn1c(-c2cccnc2[C@H](C)OC)c2c3cc(ccc31)-c1cccc(c1)C[C@H](NC(=O)[C@H](C(C)C)N(C)C(=O)[C@H]1CCN(S(=O)(=O)C=C(C)C)C1)C(=O)N1CCC[C@H](N1)C(=O)OCC(C)(C)C2 (atropisomer, axis not shown) [Example A307]
< 5000	< 10	–	–	–	–	–	–	–	–	1000 to 10000	1000 to 10000	1000 to 10000	> 10000	1000 to 10000	1000 to 10000	> 10000	1000 to 10000	CC#CC(=O)N1CC[C@H](C(=O)N(C)[C@H](C(=O)N[C@H]2Cc3nc(cs3)-c3ccc4c(c3)c(c(-c3cccnc3[C@H](C)OC)n4CC)CC(C)(C)COC(=O)[C@@H]3CCCN(N3)C2=O)C2CCCC2)C1 (atropisomer, axis not shown) [Example A309]
< 5000	10 to 100	–	–	–	–	–	–	–	–	100 to 1000	1000 to 10000	1000 to 10000	> 10000	1000 to 10000	1000 to 10000	> 10000	100 to 1000	CC#CC(=O)N1CC[C@H](C(=O)N(C)[C@H](C(=O)N[C@H]2Cc3cccc(c3)-c3ccc4c(c3)c(c(-c3cccnc3[C@H](C)OC)n4CC)CC(C)(C)COC(=O)[C@@H]3CCCN(N3)C2=O)C2CCCC2)C1 (atropisomer, axis not shown) [Example A310]
< 5000	10 to 100	–	–	–	–	–	–	–	–	10 to 100	10 to 100	10 to 100	10 to 100	10 to 100	10 to 100	10 to 100	10 to 100	C=CC(=O)N1C[C@@H]2[C@H](C1)[C@@H]2C(=O)N(C)[C@H](C(=O)N[C@H]1Cc2cc(O)cc(c2)-c2ccc3c(c2)c(c(-c2cccnc2[C@H](C)OC)n3CC)CC(C)(C)COC(=O)[C@@H]2CCCN(N2)C1=O)C(C)C (atropisomer, axis not shown) [Example A319]
